{
  "source": "ChEMBL document CHEMBL5715945",
  "about": "(Cancer Biol Ther, 2010)",
  "key": {"[1]": {"molecular_target": "Death-associated protein kinase 1 (Homo sapiens) (UniProt P53355)", "sequence (P53355 whole entry, looked up)": "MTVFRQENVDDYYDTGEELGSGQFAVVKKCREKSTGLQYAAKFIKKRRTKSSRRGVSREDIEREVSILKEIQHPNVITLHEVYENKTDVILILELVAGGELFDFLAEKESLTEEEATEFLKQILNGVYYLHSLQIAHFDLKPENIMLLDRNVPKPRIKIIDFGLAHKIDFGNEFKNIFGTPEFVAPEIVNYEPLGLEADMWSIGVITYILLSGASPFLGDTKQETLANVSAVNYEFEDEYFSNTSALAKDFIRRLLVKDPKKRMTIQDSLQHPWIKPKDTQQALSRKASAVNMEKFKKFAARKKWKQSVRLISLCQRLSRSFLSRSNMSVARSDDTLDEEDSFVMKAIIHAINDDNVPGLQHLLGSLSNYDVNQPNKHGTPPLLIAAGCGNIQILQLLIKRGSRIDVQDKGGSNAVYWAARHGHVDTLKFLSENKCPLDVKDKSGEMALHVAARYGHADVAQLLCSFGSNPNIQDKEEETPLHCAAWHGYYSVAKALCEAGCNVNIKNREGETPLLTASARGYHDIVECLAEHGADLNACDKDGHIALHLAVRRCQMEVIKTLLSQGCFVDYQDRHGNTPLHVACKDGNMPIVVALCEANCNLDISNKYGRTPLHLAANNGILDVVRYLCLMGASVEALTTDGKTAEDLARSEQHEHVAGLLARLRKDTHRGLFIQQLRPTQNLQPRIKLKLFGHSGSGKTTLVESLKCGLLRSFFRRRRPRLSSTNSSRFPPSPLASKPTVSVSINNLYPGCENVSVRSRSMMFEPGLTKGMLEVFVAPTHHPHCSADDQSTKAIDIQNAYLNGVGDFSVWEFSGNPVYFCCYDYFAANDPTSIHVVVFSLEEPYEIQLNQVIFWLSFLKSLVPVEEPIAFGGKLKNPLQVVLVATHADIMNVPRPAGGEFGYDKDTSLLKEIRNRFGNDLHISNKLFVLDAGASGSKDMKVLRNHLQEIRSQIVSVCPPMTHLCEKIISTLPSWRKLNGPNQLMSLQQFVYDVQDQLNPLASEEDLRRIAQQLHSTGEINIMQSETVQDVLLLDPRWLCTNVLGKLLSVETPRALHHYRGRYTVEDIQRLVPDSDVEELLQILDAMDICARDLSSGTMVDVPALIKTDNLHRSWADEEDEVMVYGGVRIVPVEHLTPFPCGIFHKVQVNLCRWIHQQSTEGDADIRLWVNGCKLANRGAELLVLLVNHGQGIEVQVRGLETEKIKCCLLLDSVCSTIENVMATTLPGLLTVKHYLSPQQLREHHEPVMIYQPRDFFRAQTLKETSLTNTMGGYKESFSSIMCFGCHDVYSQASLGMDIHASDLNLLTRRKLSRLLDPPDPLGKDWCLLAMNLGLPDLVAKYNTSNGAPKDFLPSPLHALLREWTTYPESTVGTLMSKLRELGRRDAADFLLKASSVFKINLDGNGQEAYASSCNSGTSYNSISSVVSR", "assay": "Inhibition of DAPK1 (unknown origin) at 1 uM relative to control; values are per cent of control"}, "[2]": {"molecular_target": "Platelet-derived growth factor receptor beta (Homo sapiens) (UniProt P09619)", "assay": "Inhibition of PDGFRb (unknown origin) at 0.1 uM relative to control; values are per cent of control"}, "[3]": {"test_system": "4T1", "assay": "Induction of apoptosis in mouse 4T1 cells assessed as increase in cell shrinkage at 0.4 to 1 uM measured after 2 days by phase contrast microscopy analysis", "format": "functional, cell-based", "conditions": "dose 0.4-1 µM, time 2.0 day"}, "[4]": {"molecular_target": "Serine/threonine-protein kinase Nek6 (Homo sapiens) (UniProt Q9HC98)", "sequence (Q9HC98 whole entry)": "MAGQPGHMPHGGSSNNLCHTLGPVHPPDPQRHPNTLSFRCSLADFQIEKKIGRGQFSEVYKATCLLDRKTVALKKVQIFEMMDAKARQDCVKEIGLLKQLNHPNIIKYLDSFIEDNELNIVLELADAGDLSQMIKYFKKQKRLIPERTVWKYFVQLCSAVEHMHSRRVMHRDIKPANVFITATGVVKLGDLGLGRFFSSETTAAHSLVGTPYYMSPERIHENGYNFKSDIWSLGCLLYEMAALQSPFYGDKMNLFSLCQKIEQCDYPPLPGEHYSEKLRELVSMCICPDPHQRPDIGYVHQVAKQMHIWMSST", "assay": "Inhibition of NEK6 (unknown origin) at 0.1 uM relative to control; values are per cent of control"}, "[5]": {"molecular_target": "Ephrin type-A receptor 1 (Homo sapiens) (UniProt P21709)", "assay": "Inhibition of EphA1 (unknown origin) at 1 uM relative to control; values are per cent of control"}, "[6]": {"molecular_target": "RAF proto-oncogene serine/threonine-protein kinase (Homo sapiens) (UniProt P04049)", "sequence (P04049 whole entry)": "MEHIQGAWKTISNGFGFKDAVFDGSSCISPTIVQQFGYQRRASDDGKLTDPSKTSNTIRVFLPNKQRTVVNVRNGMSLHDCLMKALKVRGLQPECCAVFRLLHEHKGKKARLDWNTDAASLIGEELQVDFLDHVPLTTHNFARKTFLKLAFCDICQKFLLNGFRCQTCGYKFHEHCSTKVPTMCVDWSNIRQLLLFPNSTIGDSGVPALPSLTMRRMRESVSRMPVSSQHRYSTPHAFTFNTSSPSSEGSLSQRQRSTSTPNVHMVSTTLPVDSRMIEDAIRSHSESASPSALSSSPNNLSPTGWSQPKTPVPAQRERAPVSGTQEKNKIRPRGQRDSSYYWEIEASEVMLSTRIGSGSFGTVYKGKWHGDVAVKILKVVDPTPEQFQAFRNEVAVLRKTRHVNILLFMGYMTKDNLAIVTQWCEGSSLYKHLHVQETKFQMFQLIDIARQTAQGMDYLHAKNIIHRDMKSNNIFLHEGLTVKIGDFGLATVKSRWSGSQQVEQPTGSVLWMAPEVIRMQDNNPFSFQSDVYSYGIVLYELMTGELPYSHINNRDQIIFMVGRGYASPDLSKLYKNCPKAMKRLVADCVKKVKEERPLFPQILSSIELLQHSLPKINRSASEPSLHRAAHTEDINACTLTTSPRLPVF", "assay": "Inhibition of c-RAF (unknown origin) at 0.1 uM relative to control; values are per cent of control"}, "[7]": {"molecular_target": "Tyrosine-protein kinase Lck (Homo sapiens) (UniProt P06239)", "sequence (P06239 2-509 limits assumed)": "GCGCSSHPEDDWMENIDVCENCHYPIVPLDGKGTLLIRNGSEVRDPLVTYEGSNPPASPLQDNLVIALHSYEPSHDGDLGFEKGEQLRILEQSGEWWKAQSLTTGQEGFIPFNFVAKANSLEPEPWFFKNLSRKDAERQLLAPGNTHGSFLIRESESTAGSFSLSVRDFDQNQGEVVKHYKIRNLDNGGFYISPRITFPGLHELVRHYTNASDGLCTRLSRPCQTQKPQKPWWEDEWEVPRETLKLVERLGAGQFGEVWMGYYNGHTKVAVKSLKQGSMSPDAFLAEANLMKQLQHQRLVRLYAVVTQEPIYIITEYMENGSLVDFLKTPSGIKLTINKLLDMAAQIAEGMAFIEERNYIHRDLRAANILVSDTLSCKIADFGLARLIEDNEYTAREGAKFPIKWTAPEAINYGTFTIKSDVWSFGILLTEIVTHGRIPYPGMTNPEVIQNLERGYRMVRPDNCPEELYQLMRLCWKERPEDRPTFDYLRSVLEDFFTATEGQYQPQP", "assay": "Inhibition of Lck (unknown origin) at 1 uM relative to control; values are per cent of control"}, "[8]": {"molecular_target": "Aurora kinase A (Homo sapiens) (UniProt O14965)", "assay": "Inhibition of Aurora-A (unknown origin) at 0.1 uM relative to control; values are per cent of control"}, "[9]": {"test_system": "4T1", "assay": "Induction of cell cycle arrest in mouse 4T1 cells assessed as accumulation at sub-diploid cells at 1 uM measured after 72 hrs by PI staining based flow cytometry analysis", "format": "functional"}, "[10]": {"molecular_target": "Tyrosine-protein kinase JAK2 (Homo sapiens) (UniProt O60674)", "assay": "Inhibition of JAK2 (unknown origin) at 0.1 uM relative to control; values are per cent of control"}, "[11]": {"test_system": "4T1", "assay": "Induction of apoptosis in mouse 4T1 suspended cells assessed as increase in cleaved caspase 3 expression at 0.4 uM incubated for 24 hrs by immunoblotting analysis", "format": "functional, cell-based"}, "[12]": {"molecular_target": "Mitogen-activated protein kinase 1 (Homo sapiens) (UniProt P28482)", "sequence (P28482 whole entry)": "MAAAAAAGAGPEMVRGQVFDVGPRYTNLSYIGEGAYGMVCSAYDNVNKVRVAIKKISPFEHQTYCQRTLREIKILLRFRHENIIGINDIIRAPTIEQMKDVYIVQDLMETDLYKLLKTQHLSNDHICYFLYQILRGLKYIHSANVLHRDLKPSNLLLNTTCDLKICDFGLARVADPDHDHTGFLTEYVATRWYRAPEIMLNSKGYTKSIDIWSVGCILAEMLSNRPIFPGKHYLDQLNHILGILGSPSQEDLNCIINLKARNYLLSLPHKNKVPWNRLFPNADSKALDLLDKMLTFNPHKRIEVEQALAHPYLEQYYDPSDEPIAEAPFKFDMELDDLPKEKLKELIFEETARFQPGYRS", "assay": "Inhibition of MAPK1 (unknown origin) at 0.1 uM relative to control; values are per cent of control"}, "[13]": {"test_system": "MDA-MB-231", "assay": "Upregulation of FAK level in human MDA-MB-231 cells harbouring mCherry red fluorescent protein at 0.1 to 1 uM incubated for 1 hr by immunoblotting analysis", "format": "functional, cell-based", "conditions": "dose 0.1-1 µM"}, "[14]": {"molecular_target": "Fibroblast growth factor receptor 1 (Homo sapiens) (UniProt P11362)", "assay": "Inhibition of FGFR1 (unknown origin) at 0.1 uM relative to control; values are per cent of control"}, "[15]": {"test_system": "4T1", "assay": "Antiproliferative activity against mouse 4T1 cells cultured as 3D spheroids assessed as maximal effect at 0.2 uM measured after 72 hrs by phase contrast microscopic analysis", "format": "functional, cell-based"}, "[16]": {"test_system": "4T1", "assay": "Induction of apoptosis in mouse 4T1 adherent cells upto 0.1 uM incubated for 24 hrs by annexin V staining based flow cytometry analysis", "format": "functional, cell-based"}, "[17]": {"molecular_target": "Casein kinase I isoform gamma-1 (Homo sapiens) (UniProt Q9HCP0)", "sequence (Q9HCP0 whole entry, looked up, canonical isoform)": "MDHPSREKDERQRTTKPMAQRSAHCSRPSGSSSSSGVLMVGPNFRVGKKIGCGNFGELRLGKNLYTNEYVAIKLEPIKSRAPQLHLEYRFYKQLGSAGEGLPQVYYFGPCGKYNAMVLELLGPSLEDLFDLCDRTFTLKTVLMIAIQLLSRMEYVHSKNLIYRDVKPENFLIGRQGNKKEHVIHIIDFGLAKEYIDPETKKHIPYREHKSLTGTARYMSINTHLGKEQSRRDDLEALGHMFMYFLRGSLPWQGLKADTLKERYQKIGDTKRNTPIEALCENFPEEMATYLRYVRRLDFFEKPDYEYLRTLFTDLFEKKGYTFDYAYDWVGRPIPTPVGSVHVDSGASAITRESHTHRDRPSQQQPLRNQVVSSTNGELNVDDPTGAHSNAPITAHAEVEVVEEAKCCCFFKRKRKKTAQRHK", "assay": "Inhibition of CK1g1 (unknown origin) at 0.1 uM relative to control; values are per cent of control"}, "[18]": {"molecular_target": "Insulin receptor (Homo sapiens) (UniProt P06213)", "sequence (P06213 28-758 limits assumed)": "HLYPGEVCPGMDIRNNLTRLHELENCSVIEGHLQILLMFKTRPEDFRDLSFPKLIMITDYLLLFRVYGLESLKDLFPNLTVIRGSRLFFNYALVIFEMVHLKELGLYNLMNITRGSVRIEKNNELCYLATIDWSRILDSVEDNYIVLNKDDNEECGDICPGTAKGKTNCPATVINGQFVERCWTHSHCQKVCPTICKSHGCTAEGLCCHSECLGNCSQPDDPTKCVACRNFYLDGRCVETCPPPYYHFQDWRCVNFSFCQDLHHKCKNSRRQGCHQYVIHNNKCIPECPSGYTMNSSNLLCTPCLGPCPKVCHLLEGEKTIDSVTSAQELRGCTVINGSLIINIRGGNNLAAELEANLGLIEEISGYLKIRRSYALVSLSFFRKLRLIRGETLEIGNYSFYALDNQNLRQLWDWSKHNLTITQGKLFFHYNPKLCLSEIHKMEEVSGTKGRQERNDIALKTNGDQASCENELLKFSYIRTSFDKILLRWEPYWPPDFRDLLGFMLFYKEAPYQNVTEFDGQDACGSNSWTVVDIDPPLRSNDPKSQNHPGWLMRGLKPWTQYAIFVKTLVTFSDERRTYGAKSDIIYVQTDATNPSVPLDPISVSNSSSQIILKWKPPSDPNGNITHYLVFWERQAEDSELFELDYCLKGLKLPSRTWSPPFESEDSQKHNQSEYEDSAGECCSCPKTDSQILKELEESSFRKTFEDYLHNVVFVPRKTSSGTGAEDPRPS", "sequence (P06213 763-1382 limits assumed)": "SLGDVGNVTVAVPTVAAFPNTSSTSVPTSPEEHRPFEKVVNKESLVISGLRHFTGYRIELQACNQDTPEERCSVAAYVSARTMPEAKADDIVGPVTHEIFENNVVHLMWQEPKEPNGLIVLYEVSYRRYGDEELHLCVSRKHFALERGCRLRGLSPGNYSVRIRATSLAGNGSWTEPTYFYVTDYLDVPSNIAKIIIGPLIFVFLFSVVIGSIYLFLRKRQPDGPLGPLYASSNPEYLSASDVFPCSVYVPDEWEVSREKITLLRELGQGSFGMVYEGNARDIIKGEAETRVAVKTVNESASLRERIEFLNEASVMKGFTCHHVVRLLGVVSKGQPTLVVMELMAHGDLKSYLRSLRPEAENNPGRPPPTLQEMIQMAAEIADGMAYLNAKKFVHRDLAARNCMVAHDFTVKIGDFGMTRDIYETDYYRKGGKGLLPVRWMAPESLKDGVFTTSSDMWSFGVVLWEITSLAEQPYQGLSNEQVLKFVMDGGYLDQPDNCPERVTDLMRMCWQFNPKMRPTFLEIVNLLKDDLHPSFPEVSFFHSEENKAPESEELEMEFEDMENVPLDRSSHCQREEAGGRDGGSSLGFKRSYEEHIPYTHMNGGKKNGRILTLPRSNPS", "assay": "Inhibition of IR (unknown origin) at 0.1 uM relative to control; values are per cent of control"}, "[19]": {"molecular_target": "Mitogen-activated protein kinase 1 (Homo sapiens) (UniProt P28482)", "assay": "Inhibition of MAPK1 (unknown origin) at 1 uM relative to control; values are per cent of control"}, "[20]": {"test_system": "4T1", "assay": "Inhibition of cell adhesion to fibronectin in mouse 4T1 cells at 0.4 uM incubated for 4 hrs by […]", "format": "functional, cell-based"}, "[21]": {"species": "Homo sapiens", "assay": "Inhibition of p70S6K (unknown origin) at 0.1 uM relative to control; values are per cent of control"}, "[22]": {"test_system": "4T1", "assay": "Induction of cell cycle arrest in mouse 4T1 adherent cells assessed as accumulation at S phase at 1 uM measured after 72 hrs by PI staining based flow cytometry analysis (reference value: 12.5%)", "format": "functional"}, "[23]": {"test_system": "4T1", "assay": "Induction of apoptosis in mouse 4T1 adherent cells at 0.1 to 1 uM incubated for 24 to 48 hrs by PI staining based flow cytometry analysis", "format": "functional, cell-based", "conditions": "dose 0.1-1 µM, time 24-48 hrs"}, "[24]": {"molecular_target": "Casein kinase I isoform gamma-1 (Homo sapiens) (UniProt Q9HCP0)", "assay": "Inhibition of CK1g1 (unknown origin) at 1 uM relative to control; values are per cent of control"}, "[25]": {"molecular_target": "Death-associated protein kinase 1 (Homo sapiens) (UniProt P53355)", "assay": "Inhibition of DAPK1 (unknown origin) at 0.1 uM relative to control; values are per cent of control"}, "[26]": {"test_system": "4T1", "assay": "Upregulation of FAK level in mouse 4T1 cells harbouring mCherry red fluorescent protein at 0.1 to 1 uM incubated for 1 hr by immunoblotting analysis", "format": "functional, cell-based", "conditions": "dose 0.1-1 µM"}, "[27]": {"molecular_target": "Activated CDC42 kinase 1 (Homo sapiens) (UniProt Q07912)", "assay": "Inhibition of ACK1 (unknown origin) at 0.1 uM relative to control; values are per cent of control"}, "[28]": {"test_system": "4T1", "assay": "Induction of apoptosis in mouse 4T1 cells assessed as increase in cell apoptosis at 0.1 to 1 uM measured after 2 days by visual analysis", "format": "functional", "conditions": "dose 0.1-1 µM, time 2 day"}, "[29]": {"assay": "Toxicity in C57BL6 mouse implanted with mouse ID8 cells assessed as adverse effects at 0.5 mg/ml administered as solution in 5% sucrose measured after 30 days", "format": "cell-based", "conditions": "id8, 720 h, time 30 day"}, "[30]": {"test_system": "4T1", "assay": "Effect on p130Cas phosphorylation in mouse 4T1 cultured as […] at 0.1 to 1 uM incubated for 24 hrs by immunoblotting analysis", "format": "functional, cell-based", "conditions": "dose 0.1-1 µM"}, "[31]": {"test_system": "4T1", "assay": "Inhibition of colony formation in mouse 4T1 cells assessed as reduction in cell size measured after 10 days by phase contrast microscopy analysis", "format": "functional, cell-based", "conditions": "dose 0.4-1 µM, time 10.0 day"}, "[32]": {"test_system": "4T1", "assay": "Inhibition of colony formation in mouse 4T1 cells assessed as reduction in cell number at 0.4 to 1 uM measured after 4 days by phase contrast microscopy analysis", "format": "functional, cell-based", "conditions": "dose 0.4-1 µM, time 4.0 day"}, "[33]": {"test_system": "4T1", "assay": "Inhibition of colony formation in mouse 4T1 cells assessed as reduction in cell number by measuring minimum inhibitory effect at 0.2 uM measured after 10 days by phase contrast microscopy analysis", "format": "functional, cell-based", "conditions": "time 10.0 day"}},
  "note": "Active and inactive are the calls of the source. The rule behind the calls is not given here.",
  "data": [
    {"smiles": "CNC(=O)c1ccccc1Nc1cc(Nc2ccc(N3CCOCC3)cc2OC)ncc1C(F)(F)F", "note": "[VS-4718]", "values": [
      {"measurement": "residual activity", "setting": "[1]", "result": 97, "unit": "%"},
      {"measurement": "residual activity", "setting": "[2]", "result": 98, "unit": "%"},
      {"measurement": "Activity", "setting": "[3]", "result": "Active"},
      {"measurement": "residual activity", "setting": "[4]", "result": 110, "unit": "%"},
      {"measurement": "residual activity", "setting": "[5]", "result": 108, "unit": "%"},
      {"measurement": "residual activity", "setting": "[6]", "result": 142, "unit": "%"},
      {"measurement": "residual activity", "setting": "[7]", "result": 32, "unit": "%"},
      {"measurement": "residual activity", "setting": "[8]", "result": 69, "unit": "%"},
      {"measurement": "Activity", "setting": "[9]", "result": "Active"},
      {"measurement": "residual activity", "setting": "[10]", "result": 116, "unit": "%"},
      {"measurement": "Activity", "setting": "[11]", "result": "Active"},
      {"measurement": "residual activity", "setting": "[12]", "result": 78, "unit": "%"},
      {"measurement": "Activity", "setting": "[13]", "result": "Active"},
      {"measurement": "residual activity", "setting": "[14]", "result": 98, "unit": "%"},
      {"measurement": "Activity", "setting": "[15]", "result": "Active"},
      {"measurement": "Activity", "setting": "[16]", "result": "inactive"},
      {"measurement": "residual activity", "setting": "[17]", "result": 111, "unit": "%"},
      {"measurement": "residual activity", "setting": "[18]", "result": 84, "unit": "%"},
      {"measurement": "residual activity", "setting": "[19]", "result": 58, "unit": "%"},
      {"measurement": "inhibition", "setting": "[20]", "result": "inactive"},
      {"measurement": "residual activity", "setting": "[21]", "result": 95, "unit": "%"},
      {"measurement": "Activity", "setting": "[22]", "result": 10, "unit": "%"},
      {"measurement": "Activity", "setting": "[23]", "result": "inactive"},
      {"measurement": "residual activity", "setting": "[24]", "result": 107, "unit": "%"},
      {"measurement": "residual activity", "setting": "[25]", "result": 104, "unit": "%"},
      {"measurement": "Activity", "setting": "[26]", "result": "Active"},
      {"measurement": "residual activity", "setting": "[27]", "result": 56, "unit": "%"},
      {"measurement": "Activity", "setting": "[28]", "result": ">50", "unit": "%"},
      {"measurement": "Activity", "setting": "[29]", "result": "Non-Toxic"},
      {"measurement": "Activity", "setting": "[30]", "result": "inactive"},
      {"measurement": "inhibition", "setting": "[31]", "result": "Dose-Dependent Effect"},
      {"measurement": "inhibition", "setting": "[32]", "result": "Active"},
      {"measurement": "inhibition", "setting": "[33]", "result": "Active"}
    ]}
  ]
}
